The text below walks through data of US20250340837A1, “CELLS” (University of Geneva, priority 2022, published 2025).

Holding throughout (assay type): cell-based, mouse
Experiment [1] relates to phoenix auditory neurons. Put plainly: Induced Ca2+ cytosolic release (FLUO-8) in differentiated phoenix auditory neurons. The note with it: for EC50: D7 differentiated phoenix SGCs, dose response from max-min amplitude, read-out: EC50 of induced Ca2+ transients; for Induction of Ca2+ transients: phoenix auditory neurons after 7 days of differentiation. On the procedure: (A-C) Kinetics of Ca^2+ transients induced by (A) Glutamate (higher trace for the higher concentration), (B) ATP (higher trace for the higher concentration), (C) Kainate in phoenix auditory neurons after 7 days of differentiation. Phoenix auditory neurons were loaded with Ca^2+ sensitive ratiometric probe (FLUO-8) and stimulated with increasing concentrations of glutamate ([…]), ATP (0.005-10 μM) or kainate (0.02-50 μM). (D) Dose response curves were extracted from the max-min amplitude values, allowing the determination of an EC50 value (in order of highest to lowest effect: Ionomycin, ATP, Glutamate, Thapsigargin and Kainate (no effect for Kainate). (E). Ionomycin and Thapsigargin were used as positive control. Data represent the average+/−SEM of 3 independent experiments.
A total of 32,000 cells/well were differentiated to auditory neurons on a 96-well plate coated with Matrigel, as previously described (Rousset et al., 2020). Differentiated cells were loaded with FLUO-8 (Interchim), according to the manufacturer's protocol. After an incubation period of typically 45 min at 37° C. with the inducing agent or control, the induced cytosolic calcium release was assessed in a FDSS/pCELL Functional Drug Screening System (Hamamatsu). The neuronal kinetics of calcium release was followed over about 10 min following treatment, with one measure every 0.5 s.
To further explore the excitatory function of differentiated phoenix SGCs, Ca2+ mobilization was studied in response to several physiological stimuli, namely glutamate, ATP, and kainate (FIG. 4). […] Ionomycin, an ionophore facilitating the transport of divalent cations across cell membranes, and thapsigargin, inhibiting the SERCA pump and therefore the transfer of Ca^2+ toward endoplasmic reticulum, were used as positive controls (FIG. 4D). The excitatory pattern of phoenix SGCs was also compared with human fetal sphere-derived ones and mouse spiral ganglion explants using live Ca^2+ imaging. […] Therefore, at any passage and following differentiation, phoenix auditory SGCs resemble the auditory neuron physiology.
Further, the impact of BDNF and NT-3 alone or in combination on phoenix auditory neurons' glutamatergic function was assessed. Phoenix neuroprogenitors were plated on poly-ornithine and laminin coated 96 well plates and differentiated for 7 days with or without BDNF and NT-3 alone or in combination. To assess effect of neurotrophins, the auditory neuron were stimulated twice with glutamate: first with 10 μM (EC90) and 10 min later with 100 μM, eliciting a maximal glutamatergic response (FIG. 15A). Traces show the Ca2+ mobilization kinetics with 50 ng/mLNT-3+25 ng/mL BDNF (top light curve) or without neurotrophins (bottom dark curve) upon glutamate stimulation as recorded with Ca2+ sensitive ratiometric probe (FLUO-8). Arrows show the max-min amplitude of the response following the first (10 μM) or the second (100 μM) glutamate stimulation. Heatmaps showing the effect of BDNF and NT-3 alone or in combination on Ca2+ release (min-max amplitude) induced by 10 μM glutamate (FIG. 15B) and 100 μM glutamate (FIG. 15C).

A further experiment deals with stemness-induced ANs. As to the kind of experiment: Glutamate-induced Ca2+ response in stemness-induced auditory neurons (Regenix). Here is the method: FIG. 21 Phenotypical characterization of stemness induced Auditory Neurons (ANs). (A) C57Bl/6 ANPG, were treated with WNT agonist (CHIR99021; 3 μM) or TGFb antagonist (dual SMAD inhibitors; LDN193189 0.5 μM, SB431542 10 μM) aiming at replicating phoenix ANPG stemness phenotype. After 38 days of induction, stemness-induced ANPGs were differentiated on Matrigel coating following removal of mitogenic factors. BDNF (10 ng/mL), NT-3 (50 ng/mL) and LIF (10 ng/mL) were added during the 7 days of differentiation. (B-E) Immunostainings in differentiated ANs were compared to stemness-induced ANPGs neurospheres at the same passage. (B-B′) B-III tubulin (TUJ, green) and Sox2 (red) stainings were respectively performed in (B) ANPGs and (B′) ANs. (C-C′) B-III tubulin (TUJ, green) and Nestin (Nes, red) stainings were respectively performed in (C) ANPGs and (C′) ANs. D-D′) B-III tubulin (TUJ, green) and S100 (red) stainings were respectively performed in (D) ANPGs and (D′) ANs. E-E′) B-III tubulin (TUJ) and KI67 stainings were respectively performed in (E) ANPGs and (E′) ANs. TUJ staining appears in green in ANPGs and red in ANs and KI67 appears in red in ANPGs and in green in ANs. […] (F-G) Excitatory potential of stemness-induced ANs was tested using live Ca^2+ imaging. Stemness-induced ANPGs were differentiated for 7 days in absence of growth factors. […]

In another experiment the test system is C57Bl/6 ANPGs. Put plainly: Neurosphere growth and self-propagation induction in low stemness ANPGs.
The test system of experiment [2] is spiral ganglion explants (SGE). Put plainly: Organotypic spiral ganglion explant culture, neurite outgrowth and intersections (modified Sholl analysis). The note with it: P7 SGE, 96 h; for Neurite outgrowth (neurite length index, NLI): compared to spontaneous outgrowth. On the procedure:
FIG. 13 Effect of BDNF and NT-3 alone or in combination on organotypic spiral ganglion explant culture morphology. Spiral ganglion explants (SGE) of freshly dissected P7 old mouse pups were seeded in poly-D-lysin and laminin coated 96 well plates and incubated without (n=94) or with BDNF, NT-3 or combinations of these for 96 h. Neurite outgrowth (A-C) and intersections (D-F) were quantified with representative explant micrographs underneath (G) for the given treatments. Numbers indicate the amount of neurotrophin added in ng/ml. […] In controls, a substantial outgrowth with a mean NLI of 20828 (±5647/4442; n=94), was registered. […] (D-F) Bar graphs show the intersection quantification, representing the approximated number of neurons with outgrowth. […] (A-F) Bars represent geometric means in μm; error bars indicate ±upper and lower 95% confidence intervals for the mean. The shaded area in the bottom section of each graph represents control levels (i.e. levels for samples that were not treated with BDNF and/or NT-3). One-way ANOVA, followed by Tukey-Kramer post-hoc test. Dunn non-parametric comparison with control, *p<0.05, **p<0.01, ***p<0.001.
(§1) Organotypic spiral ganglion explant culture was carried out prior to in vitro phoenix sphere derived neuron assays, as shown in the workflow in FIG. 12. […] After fixation, specimens were stained with DAPI and for β-III-tubulin (TuJI antibody) to address the effect of neurotrophins on neurite outgrowth and neuron numbers, quantified with a modified Sholl analysis routine. For each explant, the neurite length index (NLI) was computed, and associated intersection counts served as approximation for neuron numbers. The lower rows show phoenix auditory neuroprogenitor sphere dissociation and induction of differentiation. To assess the outgrowth morphology, cells were seeded at 7,000 cells/well with presence of NT-3 or BDNF for 72 h. Differentiated cells were stained for β-III-tubulin, GFAP and DAPI for morphological analysis. Parameters such as the total neurite outgrowth, the number of neurons, the number of glial cells and the mean neurite length were assessed using a custom-made Imaris procedure. For a functional evaluation by means of a calcium response assay to glutamate, 30,000 cells were seeded per well and differentiated with supplementation of BDNF, NT-3 or combinations thereof. Via a fluorescent calcium binding dye, the cellular response to glutamate was quantified.
The effect of BDNF and NT-3 alone or in combination on organotypic spiral ganglion explant culture morphology was assessed. […] Neurite outgrowth (FIG. 13 A-C) and intersections (FIG. 13 D-F) were quantified. […]

In experiment [3] the test system is phoenix auditory neurons. As to the kind of experiment: Morphology of phoenix auditory neurons differentiated with neurotrophins (Imaris). The note with it: 72 h differentiation; peaking at 100 ng/mL. Here is the method:
FIG. 14 Impact of BDNF and NT-3 supplementation on morphology of phoenix auditory neurons. Phoenix neuroprogenitors were differentiated for 72 h in presence of various concentrations of BDNF or NT-3 in 96-well plates. […] (A-D) The untreated control is represented by the bar in the left of each of the four graphs, BDNF treated specimens in the bars in the middle of each of the four graphs, and NT-3 treated by the bars on the right of each of the four graphs. The dashed horizontal grey line marks the median of the control group. The numbers on the x-axis denote neurotrophin concentrations in ng/ml. The horizontal lines in the boxes denote the median value and the dots the mean value. Whiskers extend from minimum to maximum. […] Exemplary images of differentiated cells after 72 h in culture and immunohistochemical staining without treatment (E) and supplementation of 100 ng/mL BDNF (F) and 100 ng/mL NT-3 (G). (E-G) Scale bar: 100 μm.
as §1
The impact of BDNF and NT-3 supplementation on morphology of phoenix auditory neurons was also assessed. Phoenix neuroprogenitors were differentiated for 72 h in presence of various concentrations of BDNF or NT-3 in 96-well plates.

Procedure for C57Bl/6 ANPGs: (B) Picture showing representative triplicate of ANPG spheres cultured for 1 month in a 96 well plate. Phoenix cells are used as positive control. C57Bl/6: ANPGs were cultured in DMEM:F12+N2 and B27 supplements without growth factors. +GF: DMEM:F12+N2 and B27+FGF 10 ng/mL+EGF 20 ng/mL+IGF 50 ng/mL+Heparan Sulfate 50 ng/mL. GF+DS:DMEM:F12+N2 and B27+IGF+EFG+HS+FGF+LDN193189 0.5 μM+SB431542 10 μM. GF+CHIR: DMEM:F12+N2 and B27+IGF+EFG+HS+FGF+CHIR99021 3 μM. +GF+CHIR+DS: DMEM:F12+N2 and B27+IGF+EFG+HS+FGF+LDN193189 0.5 μM+SB431542 10 μM+CHIR99021 3 μM. Phoenix+GF: phoenix ANPG cultured in standard conditions (DMEM:F12+N2 and B27+IGF+EFG+HS+FGF). (C) Graph showing the average sphere area at different time points (up to 38 days). […] (D) Following DNA staining, flow cytometry was performed to determine the percentage of cells engaged in the cell cycle (phase S/G2M; proliferating). […] (E) After reprogramming, ANPGs were differentiated on Matrigel coating following removal of mitogenic factors. […]
(B) Representative pictures of ANPG spheres 4 days following the first passage cultured in “standard” conditions (GF) or (C, left) in conditions to induce stemness (GF+LDN193189 0.5 μM+SB431542 10 μM+CHIR99021 3 μM). […] (D) At every passage, following dissociation with Accutase, ANPGs were counted with a fast read counting chamber. […]

Take `N[C@@H](CCC(=O)O)C(=O)O` [glutamate]: in the experiment on phoenix auditory neurons [1], the concentration for a half-maximal effect (EC50) worked out at 1160 nM and the “Induction of Ca2+ transients” value is reported as “Robust Ca^2+ transients”. Further, the “EC50 of glutamate-induced Ca2+ response” value in the experiment on phoenix auditory neurons [1] (Phoenix ANs, glutamate increments, 1/2 serial dilutions) was “within the μM range”. Further, the EC90 in the experiment with phoenix auditory neurons [1] (first glutamate stimulation of phoenix auditory neurons, read-out: glutamate concentration given as EC90) worked out at 10000 nM. The “Ca2+ response, live Ca2+ imaging” value in the experiment with stemness-induced ANs (glutamate 100 uM, siANs differentiated for 7 days) is “robust Ca2+ response”. For the same molecule, the “EC50 of glutamate-induced Ca2+ response” value in the experiment with stemness-induced ANs (stemness-induced ANs (Regenix), glutamate increments, 1/2 serial dilutions) is given as “within the μM range”.

Take `Cc1c[nH]c(-c2cnc(NCCNc3ccc(C#N)cn3)nc2-c2ccc(Cl)cc2Cl)n1` [CHIR, CHIR99021]: the “ability of treated ANPGs to differentiate into neurons and glial cells” value in the experiment with C57Bl/6 ANPGs (7 days differentiation on Matrigel, BIII-tubulin and S-100 staining) is given as “able to differentiate into neurons”. In the experiment with C57Bl/6 ANPGs (number of cells/passage up to passage 13), the expansion over passages result is listed as “not able to expand”.

Take `Nc1ncnc2c1ncn2[C@@H]1O[C@H](COP(=O)(O)OP(=O)(O)OP(=O)(O)O)[C@@H](O)[C@H]1O` [ATP]: in the experiment on phoenix auditory neurons [1], the EC50 worked out at 430 nM and the “Induction of Ca2+ transients” value is listed as “Robust Ca^2+ transients”.

B1: neurotrophin-3 (protein, UniProt P20783 139-257, looked up)
Neurotrophin-3: YAEHKSHRGEYSVCDSESLWVTDKSSAIDIRGHQVTVLGEIKTGNSPVKQYFYETRCKEARPVKNGCRGIDDKHWNSQCKTSQTYVRALTSENNKLVGWRWIRIDTSCVCALSRKIGRT
Take B1: in experiment [2], the “Intersections (approximated number of neurons with outgrowth)” value is “rose significantly in a dose-dependent manner” and the “Neurite outgrowth (neurite length index, NLI)” value was “significantly enhanced”. Also, in the experiment with phoenix auditory neurons [3], the “number of glial cells (exclusively GFAP positive cells)” value was “increased in general in a dose depended manner”, the “number of neurons (exclusively beta-III-tubulin positive cells)” value was “increased in general in a dose depended manner” and the total neurite outgrowth result is reported as “increased in general in a dose depended manner”.

B2: brain-derived neurotrophic factor (protein, UniProt P23560 19-247, looked up)
Neurotrophic factor BDNF …: APMKEANIRGQGGLAYPGVRTHGTLESVNGPKAGSRGLTSLADTFEHVIEELLDEDQKVRPNEENNKDADLYTSRVMLSSQVPLEPPLLFLLEEYKNYLDAANMSMRVRRHSDPARRGELSVCDSISEWVTAADKKTAVDMSGGTVTVLEKVPVSKGQLKQYFYETKCNPMGYTKEGCRGIDKRHWNSQCRTTQSYVRALTMDSKKRIGWRFIRIDTSCVCTLTIKRGR
notes: neurotrophin
Regarding B2, in experiment [2], the “Intersections (approximated number of neurons with outgrowth)” value is reported as “rose significantly in a dose-dependent manner” and the “Neurite outgrowth (neurite length index, NLI)” value is reported as “significantly enhanced”. For the same molecule, in the experiment with phoenix auditory neurons [3], the “number of glial cells (exclusively GFAP positive cells)” value was “increased in general in a dose depended manner”, the “number of neurons (exclusively beta-III-tubulin positive cells)” value is given as “increased in general in a dose depended manner” and the total neurite outgrowth result is on record as “increased in general in a dose depended manner”.
